Data: the Kinase Knowledgebase extract (Sharma et al. 2016)

Each compound was assayed against MAPK14;MAPK11;MAPK12;MAPK13 (human) (UniProt Q16539) (assay: Assessment of MAPK11/MAPK12/MAPK13/MAPK14 Kinase Activity).

SMILES | IC50 [nM]
Cc1ccc(C(=O)NC2CC2)cc1-c1ccn2c(C(C)(C)C)nnc2c1 | < 25
Cc1ccc(C(=O)NC2CC2)cc1-c1cc(C)n2c(-c3ccccc3Cl)nnc2c1 | < 25
Cc1ccc(C(=O)NC2CC2)cc1-c1ccn2c(-c3ccc(F)cc3Cl)nnc2c1 | < 25
Cc1ccc(C(=O)NC2CC2)cc1-c1ccn2c(-c3ccc(F)cc3C)nnc2c1 | < 25
Cc1ccc(C(=O)NC2(C)CC2)cc1-c1ccn2c(-c3ccccc3Cl)nnc2c1 | < 25
Cc1ccc(C(=O)NC2CC2)cc1-c1ccn2c(-c3c(C)cccc3F)nnc2c1 | < 25
Cc1cc(F)c(C(=O)NC2CC2)cc1-c1ccn2c(-c3ccccc3Cl)nnc2c1 | < 25
Cc1ccc(C(=O)NC2CC2)cc1-c1ccn2c(C3CC3)nnc2c1 | < 25
Cc1ccc(C(=O)NC2CC2)cc1-c1ccn2c(-c3ccccc3Cl)nnc2c1 | < 25
Cc1ccc(C(=O)NC2CC2)cc1-c1ccn2c(C3CCOCC3)nnc2c1 | < 25
Cc1c(F)cc(C(=O)NC2CC2)cc1-c1ccn2c(-c3c(F)cccc3Cl)nnc2c1 | < 25
CCc1ccccc1-c1nnc2cc(-c3cc(C(=O)NC4CC4)ccc3C)ccn12 | < 25
Cc1ccc(C(=O)NC2CC2)cc1-c1ccn2c(CC(C)(C)C)nnc2c1 | < 25
Cc1ccc(C(=O)Nc2ccnn2C)cc1-c1ccn2c(-c3cccc(F)c3Cl)nnc2c1 | < 25
Cc1ccc(C(=O)NC2CC2)cc1-c1cc2nnc(-c3ccccc3Cl)n2cc1C | < 25
Cc1c(F)cc(C(=O)NC2CC2)cc1-c1ccn2c(-c3ccccc3Cl)nnc2c1 | < 25
Cc1cccc(F)c1-c1nnc2cc(-c3cc(C(=O)NC4CC4)cc(F)c3C)ccn12 | < 25
Cc1ccc(C(=O)NC2CC2)cc1-c1ccn2c(-c3cc(F)c(F)cc3Cl)nnc2c1 | < 25
Cc1ccc(C(=O)NC2CC2)cc1-c1ccn2c(-c3ccncc3Cl)nnc2c1 | < 25
Cc1c(F)cc(C(=O)Nc2ccon2)cc1-c1ccn2c(-c3c(F)cccc3F)nnc2c1 | < 25
Cc1ccc(C(=O)NC2CC2)cc1-c1ccn2c(-c3c(F)cccc3C(F)(F)F)nnc2c1 | < 25
Cc1ccc(C(=O)NC2CC2)cc1-c1ccn2c(C34C[C@H]5C[C@@H](C3)C[C@@H](C4)C5)nnc2c1 | < 25
Cc1ccc(C(=O)Nc2ccnn2C)cc1-c1ccn2c(-c3cc(F)cc(F)c3)ncc2c1 | < 25
Cc1ccc(C(=O)NC2CC2)cc1-c1ccn2c(N3CCCCC3)nnc2c1 | < 25

SMILES | IC50 [nM]
Cc1c(F)cc(C(=O)NC2CC2)cc1-c1ccn2c(-c3ccncc3Cl)nnc2c1 | < 25
Cc1ccc(C(=O)Nc2ccnn2C)cc1-c1ccn2c(C3(C(F)(F)F)CC3)nnc2c1 | < 25
Cc1cccc(Cl)c1-c1nnc2cc(-c3cc(C(=O)NC4CC4)cc(F)c3C)ccn12 | < 25
Cc1c(F)cc(C(=O)NC2CC2)cc1-c1ccn2c(C(C)(C)C)nnc2c1 | < 25
Cc1c(F)cc(C(=O)NC2CC2)cc1-c1ccn2c(-c3c(Cl)cccc3Cl)nnc2c1 | < 25
Cc1ccc(C(=O)NC2CC2)cc1-c1ccn2c(-c3sccc3Cl)nnc2c1 | < 25
Cc1ccc(C(=O)NC2CC2)cc1-c1ccn2c(N(C)c3ccccc3)nnc2c1 | < 25
Cc1ccc(C(=O)NC2CC2)cc1-c1ccn2c(Cc3ccccc3)nnc2c1 | < 25
Cc1ccc(C(=O)Nc2ccnn2C)cc1-c1ccn2c(-c3cc(F)ccc3Cl)nnc2c1 | < 25
Cc1ccc(C(=O)Nc2ccnn2C)cc1-c1ccn2c(-c3cnccc3C(F)(F)F)ncc2c1 | < 25
Cc1ccc(C(=O)Nc2ccnn2C)cc1-c1ccn2c(-c3ccccc3Cl)ncc2c1 | < 25
Cc1ccc(C(=O)NC2CC2)cc1-c1ccn2c(-c3cc(F)ccc3Cl)nnc2c1 | < 25
Cc1ccc(C(=O)NC2CC2)cc1-c1ccn2c(C(C)C)nnc2c1 | < 25
Cc1ccc(C(=O)Nc2ccnn2C)cc1-c1ccn2c(-c3ccc(F)cc3Cl)nnc2c1 | < 25
Cc1c(F)cc(C(=O)NC2CC2)cc1-c1ccn2c(-c3c(F)cccc3F)nnc2c1 | < 25
Cc1ccc(C(=O)Nc2ccnn2C)cc1-c1ccn2c(C(C)C)nnc2c1 | < 25
Cc1ccc(C(=O)NC2CC2)cc1-c1ccn2c(-c3ccccc3C(F)(F)F)nnc2c1 | < 25
Cc1ccc(C(=O)Nc2ccnn2C)cc1-c1ccn2c(-c3ccc(F)cc3C)nnc2c1 | < 25
Cc1ccc(C(=O)Nc2ccnn2C)cc1-c1cc2nnc(-c3ccccc3Cl)n2cc1C | < 25
Cc1ccc(C(=O)NC2CC2)cc1-c1ccn2c(Nc3ccccc3)nnc2c1 | < 25
Cc1ccc(C(=O)NC2CC2)cc1-c1ccn2c(-c3ccc(S(C)(=O)=O)cc3Cl)nnc2c1 | < 25
Cc1ccc(C(=O)NC2CC2)cc1-c1ccn2c(-c3sccc3C)nnc2c1 | < 25
Cc1ccc(C(=O)NC2CC2)cc1-c1ccn2c(-c3c(C)cccc3Cl)nnc2c1 | < 25
Cc1ccc(C(=O)NC2CC2)cc1-c1ccn2c(-c3c(Cl)cccc3Cl)nnc2c1 | < 25

SMILES | IC50 [nM]
Cc1ccc(C(=O)NC2CC2)cc1-c1ccn2c(-c3ccccc3F)nnc2c1 | < 25
Cc1ccc(C(=O)Nc2ccnn2C)cc1-c1ccn2c(-c3ccccc3F)nnc2c1 | < 25
Cc1ccc(C(=O)Nc2ccon2)cc1-c1ccn2c(-c3c(F)cccc3F)nnc2c1 | < 25
Cc1ccccc1-c1nnc2cc(-c3cc(C(=O)NC4CC4)cc(F)c3C)ccn12 | < 25
Cc1ccc(C(=O)NC2CC2)cc1-c1ccn2c(-c3cccc(F)c3Cl)nnc2c1 | < 25
Cc1ccc(C(=O)NC2CC2)cc1-c1ccn2c(NC(C)C)nnc2c1 | < 25
Cc1ccc(C(=O)Nc2ccnn2C)cc1-c1ccn2c(-c3ccc(F)cc3C)ncc2c1 | < 25
Cc1ccc(C(=O)NC2CC2)cc1-c1ccn2c(C3CCCCC3)nnc2c1 | < 25
CCNC(=O)c1ccc(C)c(-c2ccn3c(-c4ccccc4Cl)nnc3c2)c1 | < 25
Cc1ncoc1-c1nnc2cc(-c3cc(C(=O)NC4CC4)cc(F)c3C)ccn12 | < 25
Cc1ccc(C(=O)NC2CC2)cc1-c1ccn2c(C3(C(F)(F)F)CC3)nnc2c1 | < 25
COc1ccccc1-c1nnc2cc(-c3cc(C(=O)NC4CC4)ccc3C)ccn12 | < 25
Cc1ccc(C(=O)NC2CC2)cc1-c1ccn2c(-c3ccccc3)nnc2c1 | < 25
Cc1ccc(C(=O)NC2CC2)cc1-c1ccn2c(-c3ccccc3C)nnc2c1 | < 25
Cc1ccc(C(=O)Nc2ccnn2C)cc1-c1ccn2c(-c3ccccc3Cl)nnc2c1 | < 25
Cc1ccc(C(=O)NC2CC2)cc1-c1ccn2c(C3CCCC3)nnc2c1 | < 25
Cc1ccc(C(=O)Nc2ccnn2C)cc1-c1ccn2c(-c3sccc3C)nnc2c1 | < 25
Cc1c(F)cc(C(=O)NC2CC2)cc1-c1ccn2c(-c3ccccc3C(F)(F)F)nnc2c1 | < 25
Cc1ccc(C(=O)NC2CC2)cc1-c1ccn2c(-c3c(F)cccc3Cl)nnc2c1 | < 25
Cc1ccc(C(=O)NC2CC2)cc1-c1ccn2c(N3CCCC3)nnc2c1 | < 25
Cc1ccc(C(=O)Nc2ccnn2C)cc1-c1ccn2c(-c3cc(F)c(F)cc3Cl)nnc2c1 | < 25
Cc1ccc(C(=O)NC2CC2)cc1-c1ccn2c(-c3ccc(F)cc3C)ncc2c1 | < 25
Cc1ccc(C(N)=O)cc1-c1ccn2c(-c3ccccc3Cl)nnc2c1 | < 25
